Data taken from patent US20080070939A1, “LOCAL […] COMPOSITIONS CONTAINING DEXTROROTATORY MORPHINAN DERIVATIVES OR PHARMACEUTICALLY ACCEPTABLE SALTS THEREOF” (CHI MEI FOUNDATION HOSPITAL, priority 2006, published 2008).

How the values were obtained:
[1] = tested on: sciatic nerve; test: Sciatic nerve blockade after injection at the sciatic nerve notch in rats; assay type: in vivo; parameters: AUC of time-% PE curve, sciatic nerve blockade of motor function / AUC of time-% PE curve, sciatic nerve blockade of proprioception / AUC of time-% PE curve, sciatic nerve blockade of nociceptive reaction: unit not given beside the values; settings: rats
Method: (§1) Male Sprague-Dawley rats (weighing about 300 to 350 g); for each dose of each drug, n=6.
In brief, the rats were slightly anesthetized by inhalation of a low concentration of sevoflurane. Then, 200 μL of tested drugs were injected at the sciatic nerve notch at the left hind limb of the rat using a 27-gauge needle connected to a tuberculin syringe (Becton Dickinson, USA, model BND309623-BX). Thereafter, development of sciatic nerve blockade was observed from the paralysis of the left hind limb of the rat. The right hind limb served as a control during the subsequent functional assay
For proprioception, the front half of the rat body and the right hind limb were off the ground at the same time so that the rat was standing on the left hind limb during the measurement.
The differences resided in that: The sciatic nerve notch injections of ED25, ED50 and ED75 were conducted based on the method described in the preceding section “A. Drug injection” of this example. Evaluations of motor function, proprioception and nociceptive reaction were conducted based on the method described in section “B. Neurobehavioral evaluations” of this example.
The differences resided in that: Before the statistical analysis, Shapiro-Wilk test was used to evaluate whether the data were, theoretically, normally distributed.

[2] = tested on: Male Sprague-Dawley rats; test: Spinal anesthetic effect (spinal blockade) after intrathecal injection in rats; assay type: in vivo; parameters: AUC of time-% PE curve, spinal blockade of motor function / AUC of time-% PE curve, spinal blockade of proprioception / AUC of time-% PE curve, spinal blockade of nociceptive reaction: unit not given beside the values
Method: as §1
In brief, for preparation, the hairs on the back of each rat were shaved, and the shaved back was sterilized with iodine.
After three minutes, 50 μL of each of the tested drugs was injected via a 27-gauge needle attached to a 100-μL syringe (Hamilton, Reno, Nev.) into the intrathecal space between the fourth and fifth lumbar vertebrae. The development of spinal blockade was observed from the paralysis of the hind limbs of the rats.
The magnitude of nerve block (including blocking of motor function, proprioception, and nociceptive reaction) was expressed as the percentage of possible effect (hereinafter referred to as % PE), and the maximal value of % PE was expressed as the percentage of maximal possible effect (hereinafter referred to as % MPE).
Motor function was evaluated by measuring the extensor postural thrust of the right hind limbs of the rats using a digital platform balance (Mettler Toledo, Switzerland, model PB1502-S). To test the extensor postural thrust, the rat was held upright with the hind limb extended, so that the body weight of the rat was supported by the distal metatarsus and toes. The extensor postural thrust could be measured as the force of the right hind limb of the rat thrusting the platform balance.
A reduction in the force, resulting in extensor muscle tone, was considered as a motor deficit. A force less than 20 g (i.e., a weight of the “flaccid limb”) was considered absence of an extensor postural thrust or 100% motor block or 100% MPE.
Proprioception was evaluated based on resting posture and postural reactions (including tactile placing and hopping). First, the front half of the rat body and one of the hind limbs were lifted off the ground at the same time so that the rat was standing on one hind limb. Then, the rat was moved laterally, which normally evoked a prompt hopping response of the weight-bearing hind limb of the rat in the direction of movement so as to avoid falling. A predominantly proprioceptive block caused a delayed hopping followed by greater lateral hops. […] Functional deficits were classified into four grades: 3 (normal or 0% MPE), 2 (slightly impaired), 1 (severely impaired), and 0 (completely impaired or 100% MPE).
Nociceptive reaction was evaluated by the withdrawal reflex or vocalization elicited by the pinch of a skin fold over the back at 1 cm near the proximal part of the tail, the lateral metatarsus of the bilateral hind limbs, and the dorsal part of the mid-tail. At each testing time, only one pinch was given to each of the abovementioned four testing sites, and the time interval between stimulations at different sites was around 2 seconds. Nociceptive reactions were classified into five grades: 4 (normal or 0% MPE), 3 (25% MPE), 2 (50% MPE), 1 (75% MPE), and 0 (absent or 100% MPE).
The potency of each drug on spinal blockades was compared using ED50.
Duration was defined as the interval from injection of the tested drugs to complete recovery. The ED25, ED50 and ED75 obtained according to the SAS NLIN analysis in the preceding section “C. Potency evaluation” were used in this experiment.
Regarding the method of evaluating the effect of co-administration, dextromethorphan hydrobromide monohydrate was used as an example.
After the tests, the time of measurement of each drug and its corresponding % PE were plotted to obtain the time-% PE curves of each drug. The area under the curve (AUC) of time-% PE was calculated using the trapezoidal rule, and was used to evaluate the effect of the co-administration of the drugs.
Statistical software, SPSS for Windows® (version 10.0.7) was used. Data were represented as mean±SEM.

[3] = tested on: rats; test: Systemic safety indices: mortality 24 hours after intraperitoneal injection in rats; settings: intraperitoneal injection, rats, mortality after 24 hours
Method: Essentially, each drug was injected intraperitoneally into the rats (n=8). The number of dead rats was observed after 24 hours, and the rate of mortality (%) was calculated. Thereafter, the doses of each drug and the relative mortality were plotted to obtain dose-mortality curves of the drugs. […] The safety index (LD50/ED50) of each drug was calculated using the LD50 thus obtained and the ED50 obtained in the section “C. Potency evaluation” of this example.

[4] = tested on: Male Sprague-Dawley rats; test: Infiltrative cutaneous anesthesia (inhibition of cutaneous trunci muscle reflex, CTMR) after subcutaneous injection in rats; assay type: in vivo
Method: Male Sprague-Dawley rats (weighing about 200 to 250 g); for each dose of each drug, n=8.
In brief, hairs on the dorsal surface (about 10×10 cm^2) of the thoracolumbar region of the rat were shaved, and the shaved surface was sterilized with iodine for preparation. To reduce the number of animals used, the back of the rat was further divided into left and right parts. One drug was injected first at the right part. After a washout period of one week, another drug was injected at the left part.
0.6 mL of drug was injected subcutaneously under the dorsal surface of the thoracolumbar region of the rat using a 30-gauge needle attached to a syringe (Becton Drive, Franklin Lakes, USA). The subcutaneous injection would result in a circular elevation (i.e., a wheal) of the skin, about 2 cm in diameter. The elevation was marked with ink within 1 minute after injection.
CTMR refers to the reflex movement of the skin of the back caused by twitching of the lateral thoracispinal muscle in response to local dorsal cutaneous stimulation. Essentially, a von Frey filament (No.15; Somedic Sales AB, Sweden) to which a cut end of an 18-gauge needle was affixed was used to produce a standard nociceptive stimulus (strength: 19 g). Six pinpricks (at a frequency of 0.5-1 Hz) were applied to a single marked wheal during each test. […] For example, absence of any response to all of the 6 pinpricks was defined as a complete nociceptive block (i.e., 100% MPE).
The difference resided in that subcutaneous injections of ED25, ED50 and ED75 of the drugs were performed based on the method described in the section “A. Drug injection” of this example, and evaluation of the infiltrative cutaneous anesthetic effect was performed based on the method described in the section “B. Neurobehavioral evaluation” of this example.

[5] = 2ED50 when administered independently, ED50 of each drug when co-administered, mean ± SEM
[6] = intrathecal, rats, 2 ED50 when administered independently, ED50 of each drug when co-administered, mean ± SEM
[7] = spinal blockade, mean of motor function, proprioception and nociceptive reaction, intrathecal, rats
[8] = infiltrative cutaneous anesthesia, rats, 2ED50 when administered independently, ED50 for co-administration, mean ± SEM
[9] = infiltrative cutaneous anesthesia, subcutaneous injection, rats
[10] = subcutaneous dose of ED75, rats, mean±SEM

Dextrorphan tartrate
effect of co-administration with lidocaine hydrochloride on sciatic nerve blockades ([1]; ED50 of each drug): additive effect | AUC of time-% PE curve, sciatic nerve blockade of motor function [1, 5]: 7077 ± 429 | AUC of time-% PE curve, sciatic nerve blockade of nociceptive reaction [1, 5]: 8786 ± 915 | AUC of time-% PE curve, sciatic nerve blockade of proprioception [1, 5]: 7357 ± 558 | duration of sciatic nerve blockade compared with lidocaine hydrochloride ([1]; same effective doses (ED25, ED50 or ED75)): longer reaction duration | Motor function ED50 (95% CI) ([1]; sciatic nerve blockade of motor function): 14.66 (13.78–15.58) mg/kg | Nociceptive reaction ED50 (95% CI) ([1]; sciatic nerve blockade of nociceptive reaction): 13.38 (12.37–14.47) mg/kg | Proprioception ED50 (95% CI) ([1]; sciatic nerve blockade of proprioception): 14.52 (13.40–15.73) mg/kg | Mean ED50 ([1]; sciatic nerve blockade, mean of motor function, proprioception and nociceptive reaction): 14.19 mg/kg | % MPE of spinal blockades of motor function, proprioception and nociceptive reaction (range over the three functions) ([2]; intrathecal dose of ED75, rats): 62-77 % MPE | duration of spinal blockades of motor function, proprioception and nociceptive reaction (range over the three functions) ([2]; intrathecal dose of ED75, rats): 30 to 65 min | effect of co-administration with bupivacaine hydrochloride on spinal blockade ([2]; intrathecal, rats, ED50 of each drug): synergistic effect | AUC of time-% PE curve, spinal blockade of motor function [2, 6]: 1447 ± 163 | AUC of time-% PE curve, spinal blockade of nociceptive reaction [2, 6]: 4332 ± 382 | Motor function ED50 (95% CI) ([2]; spinal blockade of motor function, intrathecal injection, rats): 0.40 (0.39–0.42) mg | Nociceptive reaction ED50 (95% CI) ([2]; spinal blockade of nociceptive reaction, intrathecal injection, rats): 0.28 (0.26–0.30) mg | Proprioception ED50 (95% CI) ([2]; spinal blockade of proprioception, intrathecal injection, rats): 0.32 (0.30–0.35) mg | Mean value ED25 [2, 7]: 0.25 mg | Mean value ED50 [2, 7]: 0.33 mg | Mean value ED75 [2, 7]: 0.45 mg | LD50 (95% CI) [3]: 307 (257–369) mg/kg | % MPE [4, 8]: 73 ± 11 % MPE | AUC (% min.) [4, 8]: 3200 ± 690 % min. | Duration [4, 8]: 63 ± 7 min | ED25 [4, 9]: 4.03 mg/kg | ED50 (95% CI) [4, 9]: 5.66 (5.17–6.21) mg/kg | ED75 [4, 9]: 7.97 mg/kg | duration of cutaneous anesthesia compared with lidocaine hydrochloride ([4]; same effective doses (ED25, ED50 or ED75), rats): longer duration | % MPE of cutaneous nociceptive block [4, 10]: 73±7 % MPE | duration of cutaneous nociceptive block [4, 10]: ~48 ± 3 min | effect of co-administration with lidocaine hydrochloride on cutaneous nociceptive blockade ([4]; subcutaneous, rats, ED50 of each drug): additive effect
